For this test, the target named is T1, full-length beta-Catenin (Uniprot ID P35222) (Homo sapiens, UniProt P35222).
T1 construct: 10 nM full-length beta-Catenin (Uniprot ID P35222)
T1 sequence (P35222 1-781): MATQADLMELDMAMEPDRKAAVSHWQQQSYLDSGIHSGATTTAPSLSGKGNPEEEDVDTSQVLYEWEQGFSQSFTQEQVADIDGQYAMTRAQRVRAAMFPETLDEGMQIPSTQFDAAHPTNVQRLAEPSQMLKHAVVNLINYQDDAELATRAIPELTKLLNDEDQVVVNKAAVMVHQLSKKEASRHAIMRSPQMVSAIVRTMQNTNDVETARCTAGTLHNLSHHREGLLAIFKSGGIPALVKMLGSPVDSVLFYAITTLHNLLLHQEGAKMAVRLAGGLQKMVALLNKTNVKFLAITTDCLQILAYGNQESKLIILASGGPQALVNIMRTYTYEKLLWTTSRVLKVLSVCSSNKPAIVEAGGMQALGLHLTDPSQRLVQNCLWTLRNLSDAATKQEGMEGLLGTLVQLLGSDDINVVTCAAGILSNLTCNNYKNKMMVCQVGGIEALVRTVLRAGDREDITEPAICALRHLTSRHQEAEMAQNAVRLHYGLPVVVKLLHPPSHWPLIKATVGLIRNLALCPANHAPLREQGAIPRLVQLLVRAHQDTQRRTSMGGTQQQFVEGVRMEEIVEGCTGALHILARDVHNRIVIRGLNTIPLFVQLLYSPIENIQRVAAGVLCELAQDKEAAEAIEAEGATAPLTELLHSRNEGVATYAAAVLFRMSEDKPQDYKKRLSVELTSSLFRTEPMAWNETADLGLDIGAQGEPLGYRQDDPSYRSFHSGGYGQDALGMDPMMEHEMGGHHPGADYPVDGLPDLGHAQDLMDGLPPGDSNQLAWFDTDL
In words: Fluorescence polarization IC50 (beta-catenin / 5FAM-TCF4 10-53 competition). To be noted: fluorescence polarization; read-out: beta-Catenin FP IC50. In kind it is binding. On the technique in general: In fluorescence polarisation assays a small probe gives low polarisation when free and higher when bound to something large.

A word on the IC50: it is the concentration at which inhibition is half-maximal.

`CC(=O)N[C@]1(C)CCCCCCCCC2(CCCCCCCCOC(=O)N3CC[C@@](C(=O)N[C@@H](Cc4ccccc4C(F)(F)F)C(=O)N[C@@H](Cc4csc5ccccc45)C(=O)N[C@@H](CCC(N)=O)C(N)=O)(C3)NC(=O)[C@H](CC(C)C)NC(=O)[C@H](Cc3ccccc3)NC(=O)[C@H](C)NC(=O)[C@H](C)NC(=O)[C@H](Cc3cccc(C(=O)O)c3)NC(=O)[C@H](CC(=O)O)NC2=O)NC(=O)[C@H](CC(C)(C)C)NC(=O)[C@H](CC(=O)O)NC(=O)[C@H](C)NC1=O` (stereo partly drawn) [I-2574, Ac-R5-Ala-Asp-Npg-B5-Asp-3COOHF-Ala-Ala-Phe-Leu-PyrS2-2F3MeF-BztA-Gln-NH2]: the IC50 was determined as 2960 nM. With `CC(=O)N1CCC[C@H]1C(=O)N[C@]1(C)CCCC=CCCCC2(CCCC=CCCCOC(=O)N3CC[C@@](C(=O)N[C@@H](Cc4ccccc4C(F)(F)F)C(=O)N[C@@H](Cc4csc5ccccc45)C(=O)N[C@@H](CCC(N)=O)C(N)=O)(C3)NC(=O)[C@H](CC(C)C)NC(=O)[C@H](Cc3ccccc3)NC(=O)[C@H](C)NC(=O)[C@H](C)NC(=O)[C@H](Cc3cccc(C(=O)O)c3)NC(=O)[C@H](CC(=O)O)NC2=O)NC(=O)[C@H](CC(C)(C)C)NC(=O)[C@H](CC(=O)O)NC(=O)[C@H](CCC(=O)O)NC1=O` (stereo partly drawn) [I-2575, Ac-Pro-R5-Glu-Asp-Npg-B5-Asp-3COOHF-Ala-Ala-Phe-Leu-PyrS2-2F3MeF-BztA-Gln-NH2], the concentration for half-maximal inhibition (IC50) is 8160 nM. Next, `CC(=O)N1CCC[C@]12CC=CCCCC1(CCCC=CCCOC(=O)N3CCC(C(=O)N[C@@H](Cc4ccccc4C(F)(F)F)C(=O)N[C@@H](Cc4csc5ccccc45)C(=O)N[C@@H](CCC(N)=O)C(N)=O)(CC3)NC(=O)[C@H](CC(C)C)NC(=O)[C@H](Cc3ccccc3)NC(=O)[C@H](C)NC(=O)[C@H](C)NC(=O)[C@H](Cc3cccc(C(=O)O)c3)NC(=O)[C@H](CC(=O)O)NC1=O)NC(=O)[C@H](CC(C)(C)C)NC(=O)[C@H](CC(=O)O)NC2=O` (stereo partly drawn) [I-2580, Ac-PL3-Asp-Npg-B5-Asp-3COOHF-Ala-Ala-Phe-Leu-SPip1-2F3MeF-BztA-Gln-NH2]: 993 nM; `CC(=O)N1CCC[C@]12CC=CCCCC1(CCCC=CCCOC(=O)N3CCC(C(=O)N[C@@H](Cc4ccccc4C(F)(F)F)C(=O)N[C@@H](Cc4csc5ccccc45)C(=O)N[C@@H](C)C(N)=O)(CC3)NC(=O)[C@H](CC(C)C)NC(=O)[C@H](Cc3ccccc3)NC(=O)[C@H](C)NC(=O)[C@H](CCC(N)=O)NC(=O)[C@H](Cc3cccc(C(=O)O)c3)NC(=O)[C@H](CC(=O)O)NC1=O)NC(=O)[C@H](CC(C)(C)C)NC(=O)[C@H](CC(=O)O)NC2=O` (stereo partly drawn) [I-2584, Ac-PL3-Asp-Npg-B5-Asp-3COOHF-Gln-Ala-Phe-Leu-SPip1-2F3MeF-BztA-Ala-NH2]: 1840 nM.

`CC(=O)N1CCC[C@]12CC=CCCCC1(CCCC=CCCCOC(=O)N3CCC(C(=O)N[C@@H](Cc4ccccc4C(F)(F)F)C(=O)N[C@@H](Cc4csc5ccccc45)C(=O)N[C@@H](C)C(N)=O)(CC3)NC(=O)[C@H](CC(C)C)NC(=O)[C@H](Cc3ccccc3)NC(=O)[C@H](C)NC(=O)[C@H](CCC(N)=O)NC(=O)[C@H](Cc3cccc(C(=O)O)c3)NC(=O)[C@H](CC(=O)O)NC1=O)NC(=O)[C@H](CC(C)(C)C)NC(=O)[C@H](CC(=O)O)NC2=O` (stereo partly drawn) [I-2585, Ac-PL3-Asp-Npg-B5-Asp-3COOHF-Gln-Ala-Phe-Leu-SPip2-2F3MeF-BztA-Ala-NH2]: the IC50 came out at 452 nM. In the case of `CC(=O)N1CCC[C@]12CC=CCCCC1(CCCC=CCCCOC(=O)N3CCC(C(=O)N[C@@H](Cc4ccccc4C(F)(F)F)C(=O)N[C@@H](Cc4csc5ccccc45)C(=O)N[C@@H](C)C(N)=O)(CC3)NC(=O)[C@H](CC(C)C)NC(=O)[C@H](Cc3ccccc3)NC(=O)[C@H](C)NC(=O)[C@H](CCC(N)=O)NC(=O)[C@H](Cc3cccc(C(=O)O)c3)NC(=O)[C@H](CC(=O)O)NC1=O)NC(=O)[C@H](CC(C)(C)C)NC(=O)[C@H](CC(=O)O)NC2=O` (stereo partly drawn) [I-2586, Ac-PL3-Asp-Npg-B5-Asp-3COOHF-Gln-Ala-Phe-Leu-SPip2-2F3MeF-BztA-Ala-NH2], the IC50 turned out to be 345 nM. Next, `CC(=O)N1CCC[C@]12CC=CCCCC1(CCCC=CCCCCOC(=O)N3CCC(C(=O)N[C@@H](Cc4ccccc4C(F)(F)F)C(=O)N[C@@H](Cc4csc5ccccc45)C(=O)N[C@@H](C)C(N)=O)(CC3)NC(=O)[C@H](CC(C)C)NC(=O)[C@H](Cc3ccccc3)NC(=O)[C@H](C)NC(=O)[C@H](CCC(N)=O)NC(=O)[C@H](Cc3cccc(C(=O)O)c3)NC(=O)[C@H](CC(=O)O)NC1=O)NC(=O)[C@H](CC(C)(C)C)NC(=O)[C@H](CC(=O)O)NC2=O` (stereo partly drawn) [I-2587, Ac-PL3-Asp-Npg-B5-Asp-3COOHF-Gln-Ala-Phe-Leu-SPip3-2F3MeF-BztA-Ala-NH2]: 273 nM; `CC(=O)N1CCC[C@]12CC=CCCCC1(CCCC=CCCCOC(=O)N3CCC(C(=O)N[C@@H](Cc4ccsc4)C(=O)N[C@@H](Cc4csc5ccccc45)C(=O)N[C@@H](CCC(N)=O)C(N)=O)(CC3)NC(=O)[C@H](CC(C)C)NC(=O)[C@H](Cc3ccccc3)NC(=O)[C@H](C)NC(=O)[C@H](C)NC(=O)[C@H](Cc3cccc(C(=O)O)c3)NC(=O)[C@H](CC(=O)O)NC1=O)NC(=O)[C@H](CC(C)(C)C)NC(=O)[C@H](CC(=O)O)NC2=O` (stereo partly drawn) [I-2588, Ac-PL3-Asp-Npg-B5-Asp-3COOHF-Ala-Ala-Phe-Leu-SPip2-3Thi-BztA-Gln-NH2]: 26 nM; `CC(=O)N1CCC[C@]12CC=CCCCC1(CCCC=CCCOC(=O)N3CCC(C(=O)N[C@@H](Cc4ccsc4)C(=O)N[C@@H](Cc4csc5ccccc45)C(=O)N[C@@H](C)C(N)=O)(CC3)NC(=O)[C@H](CC(C)C)NC(=O)[C@H](Cc3ccccc3)NC(=O)[C@H](C)NC(=O)[C@H](CCC(N)=O)NC(=O)[C@H](Cc3cccc(C(=O)O)c3)NC(=O)[C@H](CC(=O)O)NC1=O)NC(=O)[C@H](CC(C)(C)C)NC(=O)[C@H](CC(=O)O)NC2=O` (stereo partly drawn) [I-2591, Ac-PL3-Asp-Npg-B5-Asp-3COOHF-Gln-Ala-Phe-Leu-SPip1-3Thi-BztA-Ala-NH2]: 602 nM.

As for `CC(=O)N1CCC[C@]12CC1OC1CCCC1(CCCC=CCCCOC(=O)N3CC[C@@](C(=O)N[C@@H](Cc4ccccc4C(F)(F)F)C(=O)N[C@@H](Cc4csc5ccccc45)C(=O)N[C@@H](CCC(N)=O)C(N)=O)(C3)NC(=O)[C@H](CC(C)C)NC(=O)[C@H](Cc3ccccc3)NC(=O)[C@H](C)NC(=O)[C@H](C)NC(=O)[C@H](Cc3cccc(C(=O)O)c3)NC(=O)[C@H](CC(=O)O)NC1=O)NC(=O)[C@H](CC(C)(C)C)NC(=O)[C@H](CC(=O)O)NC2=O` (stereo partly drawn) [I-2597, Ac-PL3-Asp-Npg-B5-Asp-3COOHF-Ala-Ala-Phe-Leu-PyrS2-2F3MeF-BztA-Gln-NH2], the IC50 is 726 nM. Next, `CC(C)C[C@H](NC(=O)[C@]12CCN(C1)C(=O)OCCCC=CCCCC1(CCCC=CCCCC(=O)N3CCC[C@@]3(C)C(=O)N[C@@H](CC(=O)O)C(=O)N1)C(=O)N[C@@H](C)C(=O)N[C@@H](CC(=O)O)C(=O)N[C@@H](CC(=O)O)C(=O)N[C@@H](C)C(=O)N[C@@H](C)C(=O)N[C@@H](Cc1ccccc1)C(=O)N2)C(=O)N[C@@H](Cc1ccsc1)C(=O)N[C@@H](Cc1csc2ccccc12)C(=O)N[C@@H](CCC(N)=O)C(N)=O` (stereo partly drawn) [I-2598, 5hexenyl-MePro-Asp-B5-Ala-Asp-Asp-Ala-Ala-Phe-PyrS2-Leu-3Thi-BztA-Gln-NH2]: 1350 nM. Regarding `CC(C)C[C@H](NC(=O)[C@]12CCN(C1)C(=O)OCCCCCCCCC1(CCCCCCCCC(=O)N3CCC[C@@]3(C)C(=O)N[C@@H](CC(=O)O)C(=O)N1)C(=O)N[C@@H](C)C(=O)N[C@@H](CC(=O)O)C(=O)N[C@@H](CC(=O)O)C(=O)N[C@@H](C)C(=O)N[C@@H](C)C(=O)N[C@@H](Cc1ccccc1)C(=O)N2)C(=O)N[C@@H](Cc1ccsc1)C(=O)N[C@@H](Cc1csc2ccccc12)C(=O)N[C@@H](CCC(N)=O)C(N)=O` (stereo partly drawn) [I-2600, 5hexenyl-MePro-Asp-B5-Ala-Asp-Asp-Ala-Ala-Phe-PyrS2-Leu-3Thi-BztA-Gln-NH2], the IC50 was determined as 923 nM. To `CC(C)C[C@H](NC(=O)[C@]12CCN(C1)C(=O)OCCCCCCCCC1(CCCCCCCC(=O)N3CCC[C@@]3(C)C(=O)N[C@@H](CC(=O)O)C(=O)N1)C(=O)N[C@@H](C)C(=O)N[C@@H](CC(=O)O)C(=O)N[C@@H](CC(=O)O)C(=O)N[C@@H](C)C(=O)N[C@@H](C)C(=O)N[C@@H](Cc1ccccc1)C(=O)N2)C(=O)N[C@@H](Cc1ccsc1)C(=O)N[C@@H](Cc1csc2ccccc12)C(=O)N[C@@H](CCC(N)=O)C(N)=O` (stereo partly drawn) [I-2601, 4pentenyl-MePro-Asp-B5-Ala-Asp-Asp-Ala-Ala-Phe-PyrS2-Leu-3Thi-BztA-Gln-NH2] belongs 592 nM; to `CC(C)C[C@H](NC(=O)[C@]12CCN(C1)C(=O)OCCCC=CCCCC1(CCCC=CCCCC(=O)N3CCC[C@@]3(C)C(=O)N[C@@H](CC(=O)O)C(=O)N1)C(=O)N[C@@H](C)C(=O)N[C@@H](CC(=O)O)C(=O)N[C@@H](Cc1cccc(C(=O)O)c1)C(=O)N[C@@H](C)C(=O)N[C@@H](C)C(=O)N[C@@H](Cc1ccccc1)C(=O)N2)C(=O)N[C@@H](Cc1ccsc1)C(=O)N[C@@H](Cc1csc2ccccc12)C(=O)N[C@@H](CCC(N)=O)C(N)=O` (stereo partly drawn) [I-2602, 5hexenyl-MePro-Asp-B5-Ala-Asp-3COOHF-Ala-Ala-Phe-PyrS2-Leu-3Thi-BztA-Gln-NH2], 8220 nM.

(Values after patent publication US20240116985A1, “STAPLED PEPTIDES AND METHODS THEREOF” (priority 2020, published 2024).)
